As a reminder, the inhibition is the change of the read-out against control, counted positive when it falls.

Experiment [1] has as its target T1, integrin linked kinase (full-length recombinant GST-ILK) (Homo sapiens, UniProt Q13418).
T1 construct: The target integrin linked kinase is a full-length recombinant protein expressed in sF9 insect cells; made in house; host or cells: baculovirus; virus amplified in Sf9, protein expressed in Hi5 insect cells
T1 sequence (Q13418 1-452): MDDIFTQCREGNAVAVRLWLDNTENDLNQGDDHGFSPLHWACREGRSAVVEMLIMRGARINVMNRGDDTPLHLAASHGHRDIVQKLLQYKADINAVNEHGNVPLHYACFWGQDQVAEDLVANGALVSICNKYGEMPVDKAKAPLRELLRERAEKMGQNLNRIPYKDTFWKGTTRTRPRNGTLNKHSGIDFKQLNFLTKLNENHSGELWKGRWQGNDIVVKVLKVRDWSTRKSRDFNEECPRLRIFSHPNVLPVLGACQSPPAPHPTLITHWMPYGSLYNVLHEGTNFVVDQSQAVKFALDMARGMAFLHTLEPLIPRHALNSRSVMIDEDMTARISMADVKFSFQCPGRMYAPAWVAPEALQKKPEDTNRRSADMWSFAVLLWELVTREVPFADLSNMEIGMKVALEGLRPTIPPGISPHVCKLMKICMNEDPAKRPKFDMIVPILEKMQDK
The experiment can be described thus: ILK kinase inhibition assay (phosphocellulose filter, scintillation counting). The class given is biochemical. As for the experimental part: Inhibition Assay: Compounds were received in lyophilized form and stored at −20° C. Stock solutions were made by weighing out the compounds and dissolving them in dimethyl sulfoxide (DMSO) to a standard concentration, usually 20 mM, and stored at −20° C. […] Diluted 100% DMSO was used as a negative control.
5 μl of each compound dilution were robotically pipetted to Costar serocluster plates maintaining the same plate format. All assays consisted of the following volumes: • 5 μl diluted compound • 10 μl enzyme preparation • 5 μl substrate • 5 μl assay ATP and were then incubated 15 min at room temperature.
From each reaction, 10 μl of reaction mix was spotted onto Millipore Multiscreen-PH opaque plates and washed 2×10 min in 1% phosphoric acid. The plates were dried for at 40° C. for 30 min, then the substrate phosphate complexes were quantitated by scintillation counting. These Millipore plates are in a 96 well format with immobilized P81 phosphocellulose membranes. Both the phosphorylated and non-phosphorylated form of the substrate bind to the membrane while ATP (unincorporated phosphate) is removed in the subsequent wash steps.
Integrin Linked Kinase: The target integrin linked kinase is a full-length recombinant protein expressed in sF9 insect cells by baculovirus infection. The ILK1 substrate is […]-amide.
Recombinant ILK protein was expressed using cultured insect cells and a baculovirus expression system.
A large scale plasmid preparation of the resulting transfer construct was made using a Qiagen Plasmid Midi Kit. This ILK transfer construct was then co-transfected with BaculoGold DNA (Pharmingen) into Sf9 insect cells (Invitrogen) and a high titre preparation of GST-ILK recombinant baculovirus was produced by amplification in Sf9 cells. Liter scale expression of GST-ILK recombinant protein was done in 1000 ml spinner flasks (Bellco) by infection of Hi5 insect cells (invitrogen) grown in Ex-Cell 400 Serum Free Media (JRH Biosciences) at a multiplicity of infection of approximately 5. The cells were harvested three days after infection and lysed in Hypotonic Lysis Buffer (HLB; 10 mM imidazole, 5 mM EDTA, 0.1% β-mercaptoethanol, 10 ug/ml PMSF, 1 mM benzamidine) by sonication. The lysate was centrifuged at 10,000×g for 20 min and the supernatant was discarded. The pellet was washed twice in HLB and then washed twice in High Salt Buffer (HSB; 500 mM NaCl, 10 mM imidazole, 5 mM EDTA, 0.1% β-mercaptoethanol, 10 ug/mI PMSF, 1 mM benzamidine). The pellet was then resuspended in DNAse-ATP Buffer (DAB; 10 mM MgCl2, 1 mM MnCl2, β-methyl aspartic acid, 2 mM NaF, 0.55 mg/ml ATP, 1 ug/ml DNAse l, 1% NP-40, 10 mM imidazole, 5 mM EDTA, 0.1% β-mercaptoethanol, 10 ug/ml PMSF, 1 mM benzamidine) and stirred for 30 min at room temperature, and then centrifuged at 10,000×g for 20 min. The pellet was resuspended in High Salt Detergent buffer (HDB; 1% NP-40, 1% Triton X-100, 500 mM NaCl, 10 mM imidazole, 5 mM EDTA, 0.1% β-mercaptoethanol, 10 ug/ml PMSF, 1 mM benzamidine), stirred for 30 min at room temperature, and then centrufuged at 10,000×g for 20 min. The pellet was then washed once in each of HDB, HSB, and HLB, centrifuging at 10,000×g each time. Finally, the pellet was resuspended in HLB.

Another experiment concerns RAW 264.7 cells. The experiment can be described thus: LPS-IFN-γ-induced macrophage NO production (Griess nitrite assay), RAW 264.7 cells. The class given is cell-based, murine. As to conditions: 24 h; for NO release (%): 50 μM, relative to DMSO treated cells; for inhibition at 50 µM: Mus musculus, RAW264.7, 50 μM. The method, then:
RAW 264.7 cells. RAW 264.7 cells, a murine macrophage cell line, were obtained from American Type Culture Collection (ATCC, Manassas, Va.) and cultured in DMEM supplemented with 10% FCS. Each treatment was performed in triplicate wells. RAW 264.7 cells (Balb/c background) produce a significant amount of nitric oxide upon treatment with IFN-γ alone, but require LPS for full activation. This property makes their behavior more like that of normal macrophages obtained from commonly used strains of mice.
Treatment of primary macrophages and RAW 264.7 cells. […] Following 3 h incubation, at 37 C, 5% CO2 (macrophages were allowed to attach) cells were stimulated with LPS (0.5 μg/ml) and IFN-γ (100 U/ml) in the absence or presence of various concentrations of ILK inhibitors (all treatments were replicated six times). Cells were incubated for an additional 24 h, and cell free culture supernatants from each well were collected for NO and cytokine determination. The remaining cells were stained with crystal violet to determine effect of the inhibitors on cell survival.
NO production. Following stimulation, the production of NO was determined by assaying culture supernatants for NO2^−, a stable reaction product of NO with molecular oxygen. Briefly, 100 μl of culture supernatant was reacted with an equal volume of Griess reagent at room temperature for 10 min. The absorbance at 550 nm was determined. All measurements were performed six times. The concentration of NO2^−was calculated by comparison with a standard curve prepared using NaNO2.
Effects of ILK inhibitors on LPS-IFN-γ-induced NO release. […] […] To compare the effect of the compounds across three different cell types, the NO release for each cell type was expressed relative to DMSO treated cells.
In general terms: The Griess reaction detects nitrite, a stable product of nitric oxide.

In the case of `Oc1ccc2c(c1)CC1NCCc3cc(O)c(O)c-2c31` (stereo not drawn) [KP-21849, 5,6,6a,7-Tetrahydro-4H-dibenzo[de,g]quinoline-1,2,9-triol], in experiment [1], the “inhibits ILK at” value was determined as 2 µM. Moreover, in the experiment on RAW 264.7 cells, the “NO release (%)” value is −0.1% and the inhibition at 50 µM came to 100%.
For the compound `N=C(N)N/N=C/c1ccc(Cl)cc1Cl` [KP-16735], the inhibition at 0.1 µM in experiment [1] (0.1 μM, corrected against the maximum observed inhibition) turned out to be 13%. The inhibition at 0.3 µM in experiment [1] (0.3 μM, corrected against the maximum observed inhibition) was -1%. Further, in experiment [1] (0.7 μM, corrected against the maximum observed inhibition), the inhibition at 0.7 µM stood at 4%. Further, the inhibition at 1.6 µM in experiment [1] (1.6 μM, corrected against the maximum observed inhibition) was 18%. In addition, the inhibition at 4.1 µM in experiment [1] (4.1 μM, corrected against the maximum observed inhibition) was 32%. The inhibition at 10.2 µM in experiment [1] (10.2 μM, corrected against the maximum observed inhibition) was found to be 69%. Besides, in experiment [1] (25.6 μM, corrected against the maximum observed inhibition), the inhibition at 25.6 µM came to 85%. In addition, in experiment [1] (64.0 μM, corrected against the maximum observed inhibition), the inhibition at 64 µM is 99%. Also, in experiment [1] (160.0 μM, corrected against the maximum observed inhibition), the inhibition at 160 µM was determined as 102%. Moreover, in experiment [1] (400.0 μM, corrected against the maximum observed inhibition), the inhibition at 400 µM was found to be 99%. Moreover, in the experiment with RAW 264.7 cells, the “NO release (%)” value is on record as 20.4% and the inhibition at 50 µM was determined as 73%.

For the origin of these results see US20050220779A1, “Integrin linked kinase modulation of macrophage activation” (priority 2001, published 2005).
